What was measured:
E-selectin = target: T1, E-selectin (Homo sapiens, UniProt P16581); test: Competitive inhibition of QANP binding to activated HUVECs; format: cell-based; details: pre-incubated 30 minutes, flow cytometry
T1 construct: TNF-α treatment induces the expression of E-selectin on HUVECs; endogenous in cells
T1 sequence (P16581 22-610): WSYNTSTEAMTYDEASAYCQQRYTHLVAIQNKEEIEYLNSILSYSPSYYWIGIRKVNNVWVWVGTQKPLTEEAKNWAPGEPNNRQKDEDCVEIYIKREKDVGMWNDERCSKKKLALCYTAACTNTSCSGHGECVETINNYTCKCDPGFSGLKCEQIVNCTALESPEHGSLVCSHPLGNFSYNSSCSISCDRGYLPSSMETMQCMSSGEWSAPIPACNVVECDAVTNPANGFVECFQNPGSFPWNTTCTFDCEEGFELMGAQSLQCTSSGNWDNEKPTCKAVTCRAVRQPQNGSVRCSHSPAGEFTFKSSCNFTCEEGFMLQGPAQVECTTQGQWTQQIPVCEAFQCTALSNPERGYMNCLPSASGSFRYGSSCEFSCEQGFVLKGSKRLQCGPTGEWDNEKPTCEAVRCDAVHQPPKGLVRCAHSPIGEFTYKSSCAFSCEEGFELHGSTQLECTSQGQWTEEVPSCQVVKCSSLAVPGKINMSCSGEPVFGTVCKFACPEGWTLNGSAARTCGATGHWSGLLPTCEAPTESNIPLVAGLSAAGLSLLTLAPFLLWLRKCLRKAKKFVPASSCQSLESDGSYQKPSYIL
Protocol: For flow cytometry, HUVECs were treated with NPs in the same way as above and gently washed with PBS twice to remove free or loosely bound NPs. The cells were then trypsinized, collected by centrifugation at 930×g for 5 minutes, resuspended in 0.2 mL of PBS at 0° C., and analyzed with an Accuri C6 flow cytometer (BD Biosciences, San Jose, Calif., USA) equipped with an FL-1 detector (λex/λem=488/525 nm). For competition assay, known concentrations of free QA-NH2 or E-selectin antibody were pre-incubated with HUVECs for 30 minutes, prior to the NP treatment and flow cytometry.

[1] = test system: subcutaneous MDA-MB-231 tumor xenografts; test: In vivo whole body imaging and ex vivo organ distribution; design: species or system female athymic nude mice; details: tail vein, imaged over 24 hours
Protocol: All animal procedures were approved by the Purdue Animal Care and Use Committee, in compliance with the NIH guidelines for the care and use of laboratory animals. Female athymic nude mice ([…]) at the age of 6-7 weeks were purchased from Envigo (Indianapolis, Ind., USA) and acclimatized for 1 week prior to the procedure. Each mouse received 5×10^6 MDA-MB-231 cells in the flank of hind leg by subcutaneous injection. […] […] After 48 hours, mice were sacrificed, and tumors and major organs were retrieved and imaged with IVIS Lumina system. To quantify ICG content in each organ, tumor and major organs were homogenized in DMSO with a Tissue Master homogenizer (Omni International, Kennesaw, Ga., USA). The organ homogenates were centrifuged, and 0.1 mL supernatant was sampled from each homogenate and analyzed with the IVIS Lumina system.

| QANP binding to the activated HUVECs in presence of competitor (E-selectin) | SMILES | tumor fluorescence (whole body imaging) [1] | whole body distribution and clearance [1] |
| --- | --- | --- | --- |
| reduced | Nc1cc(NC(=O)[C@]2(O)C[C@@H](O)[C@@H](O)[C@H](O)C2)cc(C(=O)O)c1 [QA-NH2, 3-amino-5-((1 S,3R,4S,5R)-1,3,4,5-tetrahydroxycyclohexane-1-carboxamido)benzoic Acid] | – | – |
| – | CC1(C)C(/C=C/C=C/C=C/C=C2\N(CCCCS(=O)(=O)O)c3ccc4ccccc4c3C2(C)C)=[N+](CCCCS(=O)(=O)[O-])c2ccc3ccccc3c21 [free ICG, indocyanine green] | did not show fluorescence in tumors at all time points | gradually cleared by hepatobiliary elimination |

Source: patent US11154514B2, “Quinic acid-modified nanoparticles and uses thereof” (Purdue Research Foundation, priority 2017, dated 2021)
